In test [1] the target is T1, Mitogen-activated protein kinase 14 (Homo sapiens, UniProt Q16539). Briefly: Inhibition of p38alpha by immunosorbent based kinase assay.
Test [2] deals with T1, Mitogen-activated protein kinase 14. Briefly: Inhibition of p38alpha-dependent TNFalpha production in human whole blood.
The target in test [3] is RAC-alpha serine/threonine-protein kinase (Homo sapiens) (UniProt P31749). Briefly: Inhibition of AKT1 at 10 uM.
For test [4], the target named is T2, Serine/threonine-protein kinase PLK4 (Homo sapiens) (UniProt O00444).
T2 sequence (whole entry): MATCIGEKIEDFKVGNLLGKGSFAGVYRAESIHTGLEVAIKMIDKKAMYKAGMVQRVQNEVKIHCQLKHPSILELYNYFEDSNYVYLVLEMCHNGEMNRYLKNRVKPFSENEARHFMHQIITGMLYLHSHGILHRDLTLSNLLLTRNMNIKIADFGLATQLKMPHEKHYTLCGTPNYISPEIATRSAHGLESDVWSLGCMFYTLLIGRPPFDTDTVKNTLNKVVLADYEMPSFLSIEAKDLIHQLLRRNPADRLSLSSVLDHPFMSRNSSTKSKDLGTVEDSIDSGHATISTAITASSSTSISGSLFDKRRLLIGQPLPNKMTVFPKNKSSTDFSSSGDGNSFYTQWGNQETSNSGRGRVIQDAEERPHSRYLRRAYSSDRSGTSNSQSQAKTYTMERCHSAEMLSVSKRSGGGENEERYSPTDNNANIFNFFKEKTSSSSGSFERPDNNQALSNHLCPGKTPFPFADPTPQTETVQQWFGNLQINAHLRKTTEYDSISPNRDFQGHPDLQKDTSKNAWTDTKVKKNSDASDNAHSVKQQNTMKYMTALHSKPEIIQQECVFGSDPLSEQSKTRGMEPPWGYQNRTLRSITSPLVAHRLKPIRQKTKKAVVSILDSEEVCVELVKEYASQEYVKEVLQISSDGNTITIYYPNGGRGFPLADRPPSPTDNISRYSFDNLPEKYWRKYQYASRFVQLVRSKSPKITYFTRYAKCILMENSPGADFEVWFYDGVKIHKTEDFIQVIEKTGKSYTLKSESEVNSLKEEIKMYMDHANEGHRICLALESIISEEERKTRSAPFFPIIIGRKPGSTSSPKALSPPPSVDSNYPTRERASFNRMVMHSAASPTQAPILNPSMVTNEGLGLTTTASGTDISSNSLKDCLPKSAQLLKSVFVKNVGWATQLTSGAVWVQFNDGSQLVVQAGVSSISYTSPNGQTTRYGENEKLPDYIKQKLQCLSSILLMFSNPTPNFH
Briefly: Inhibition of SAK at 10 uM.

Test [5] has as its target T3, NUAK family SNF1-like kinase 1 (Homo sapiens) (UniProt O60285).
T3 sequence (whole entry): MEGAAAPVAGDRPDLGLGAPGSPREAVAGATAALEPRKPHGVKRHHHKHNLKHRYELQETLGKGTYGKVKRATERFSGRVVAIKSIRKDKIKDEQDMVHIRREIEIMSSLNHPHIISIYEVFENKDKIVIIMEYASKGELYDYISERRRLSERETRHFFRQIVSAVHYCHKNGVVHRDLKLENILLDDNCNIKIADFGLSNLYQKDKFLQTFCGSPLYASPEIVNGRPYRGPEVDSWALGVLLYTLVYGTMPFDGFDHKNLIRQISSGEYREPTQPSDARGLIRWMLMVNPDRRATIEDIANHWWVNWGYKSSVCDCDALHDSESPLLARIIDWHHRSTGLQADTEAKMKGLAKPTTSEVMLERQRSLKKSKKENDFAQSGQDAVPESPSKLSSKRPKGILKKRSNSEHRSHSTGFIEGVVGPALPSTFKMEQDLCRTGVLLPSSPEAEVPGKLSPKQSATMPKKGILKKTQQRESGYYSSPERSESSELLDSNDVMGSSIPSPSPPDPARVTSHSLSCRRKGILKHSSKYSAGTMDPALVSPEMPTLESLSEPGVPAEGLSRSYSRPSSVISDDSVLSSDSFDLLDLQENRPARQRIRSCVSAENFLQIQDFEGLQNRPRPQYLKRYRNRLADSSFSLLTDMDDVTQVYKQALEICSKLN
Briefly: Inhibition of ARK5 at 10 uM.

Test [6] deals with BDNF/NT-3 growth factors receptor (Homo sapiens) (UniProt Q16620). Briefly: Inhibition of TRKB at 10 uM.
The target of test [7] is Aurora kinase B (Homo sapiens) (UniProt Q96GD4). Briefly: Inhibition of AuroraB at 10 uM.
In test [8] the target is Proto-oncogene tyrosine-protein kinase Src (Homo sapiens) (UniProt P12931). Briefly: Inhibition of SRC at 10 uM.
The subject of test [9] is Serine/threonine-protein kinase B-raf (Homo sapiens), P15056 [V600E]. Briefly: Inhibition of BRAF V600E mutant at 10 uM.
Test [10] has as its target Vascular endothelial growth factor receptor 2 (Homo sapiens) (UniProt P35968). Briefly: Inhibition of VEGFR2 at 10 uM.
For test [11], the target named is Insulin receptor (Homo sapiens) (UniProt P06213). Briefly: Inhibition of INSR at 10 uM.
The target of test [12] is Insulin-like growth factor 1 receptor (Homo sapiens) (UniProt P08069). Briefly: Inhibition of IGF1R at 10 uM.
Test [13] deals with Hepatocyte growth factor receptor (Homo sapiens) (UniProt P08581). Briefly: Inhibition of MET at 10 uM.
Test [14] concerns the target Focal adhesion kinase 1 (Homo sapiens) (UniProt Q05397). Briefly: Inhibition of FAK at 10 uM.
Test [15] deals with Serine/threonine-protein kinase PLK1 (Homo sapiens) (UniProt P53350). Briefly: Inhibition of PLK1 at 10 uM.
Test [16] has as its target Tyrosine-protein kinase receptor UFO (Homo sapiens) (UniProt P30530). Briefly: Inhibition of AXL at 10 uM.
In test [17] the target is Serine/threonine-protein kinase N1 (Homo sapiens) (UniProt Q16512). Briefly: Inhibition of PRK1 at 10 uM.
Test [18] addresses Casein kinase II subunit alpha (Homo sapiens) (UniProt P68400). Briefly: Inhibition of CK2alpha1 at 10 uM.

Structures are written as SMILES. Active and inactive are the calls of the source. The rule behind the calls is not given here.

The results in this text go back to ChEMBL document CHEMBL2150974 (J Med Chem, 2012).

Insulin receptor (Homo sapiens), sequence (P06213 28-758 limits assumed): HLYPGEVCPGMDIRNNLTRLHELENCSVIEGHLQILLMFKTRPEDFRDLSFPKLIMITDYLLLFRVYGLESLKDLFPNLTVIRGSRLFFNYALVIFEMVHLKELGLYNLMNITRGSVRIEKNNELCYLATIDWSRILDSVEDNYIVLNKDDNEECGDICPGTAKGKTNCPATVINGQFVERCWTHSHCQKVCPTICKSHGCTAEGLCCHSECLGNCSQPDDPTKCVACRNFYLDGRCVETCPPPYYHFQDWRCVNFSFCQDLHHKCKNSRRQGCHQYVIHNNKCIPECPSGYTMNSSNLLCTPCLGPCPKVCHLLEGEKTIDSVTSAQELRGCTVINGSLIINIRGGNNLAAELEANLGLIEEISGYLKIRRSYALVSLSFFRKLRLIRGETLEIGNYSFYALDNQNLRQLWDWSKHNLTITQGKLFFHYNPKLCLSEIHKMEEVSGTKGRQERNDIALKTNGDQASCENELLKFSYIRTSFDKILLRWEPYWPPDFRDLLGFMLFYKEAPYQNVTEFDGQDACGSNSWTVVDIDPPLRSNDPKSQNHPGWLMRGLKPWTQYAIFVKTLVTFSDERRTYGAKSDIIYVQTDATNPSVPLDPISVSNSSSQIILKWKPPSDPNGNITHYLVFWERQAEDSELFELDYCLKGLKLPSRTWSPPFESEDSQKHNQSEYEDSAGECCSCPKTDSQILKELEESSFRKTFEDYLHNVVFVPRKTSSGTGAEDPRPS
Insulin receptor (Homo sapiens), sequence (P06213 763-1382 limits assumed): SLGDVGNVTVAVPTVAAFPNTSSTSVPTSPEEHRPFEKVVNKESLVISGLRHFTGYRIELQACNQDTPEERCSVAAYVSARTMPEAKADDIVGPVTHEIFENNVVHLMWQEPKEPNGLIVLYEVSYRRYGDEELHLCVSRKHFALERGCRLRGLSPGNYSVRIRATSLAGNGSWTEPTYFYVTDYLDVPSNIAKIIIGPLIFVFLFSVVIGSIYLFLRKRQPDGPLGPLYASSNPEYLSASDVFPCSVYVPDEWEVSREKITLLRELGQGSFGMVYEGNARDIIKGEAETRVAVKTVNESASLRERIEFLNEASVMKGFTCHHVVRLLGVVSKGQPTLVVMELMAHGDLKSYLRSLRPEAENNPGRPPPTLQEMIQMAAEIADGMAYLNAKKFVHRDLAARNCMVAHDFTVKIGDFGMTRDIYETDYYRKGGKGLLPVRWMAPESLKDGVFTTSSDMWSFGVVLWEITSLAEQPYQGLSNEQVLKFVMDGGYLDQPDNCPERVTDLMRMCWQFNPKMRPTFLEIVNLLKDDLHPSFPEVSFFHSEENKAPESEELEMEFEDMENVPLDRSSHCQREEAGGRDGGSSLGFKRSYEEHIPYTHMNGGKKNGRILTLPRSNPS
Serine/threonine-protein kinase B-raf (Homo sapiens), P15056 [V600E], sequence (P15056 whole entry V600E): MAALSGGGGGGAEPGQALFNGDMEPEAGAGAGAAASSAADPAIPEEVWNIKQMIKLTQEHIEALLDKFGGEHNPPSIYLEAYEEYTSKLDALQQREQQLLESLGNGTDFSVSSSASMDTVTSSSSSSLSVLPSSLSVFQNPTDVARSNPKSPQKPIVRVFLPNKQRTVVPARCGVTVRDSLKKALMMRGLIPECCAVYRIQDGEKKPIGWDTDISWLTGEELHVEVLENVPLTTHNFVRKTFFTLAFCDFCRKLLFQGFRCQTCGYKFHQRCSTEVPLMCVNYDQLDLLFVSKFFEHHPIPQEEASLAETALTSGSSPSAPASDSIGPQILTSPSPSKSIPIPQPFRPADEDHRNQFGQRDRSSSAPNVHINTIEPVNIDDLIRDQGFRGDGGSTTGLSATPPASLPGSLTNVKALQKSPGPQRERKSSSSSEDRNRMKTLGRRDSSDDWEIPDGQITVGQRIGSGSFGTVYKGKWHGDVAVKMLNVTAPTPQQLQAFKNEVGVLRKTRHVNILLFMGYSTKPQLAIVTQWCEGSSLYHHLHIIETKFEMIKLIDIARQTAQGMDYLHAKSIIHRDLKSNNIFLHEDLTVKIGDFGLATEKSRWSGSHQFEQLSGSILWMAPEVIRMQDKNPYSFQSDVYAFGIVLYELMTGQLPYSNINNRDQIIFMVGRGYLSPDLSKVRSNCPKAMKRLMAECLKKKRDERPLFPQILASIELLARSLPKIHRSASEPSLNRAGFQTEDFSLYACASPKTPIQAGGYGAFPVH
T1 sequence (Q16539 whole entry): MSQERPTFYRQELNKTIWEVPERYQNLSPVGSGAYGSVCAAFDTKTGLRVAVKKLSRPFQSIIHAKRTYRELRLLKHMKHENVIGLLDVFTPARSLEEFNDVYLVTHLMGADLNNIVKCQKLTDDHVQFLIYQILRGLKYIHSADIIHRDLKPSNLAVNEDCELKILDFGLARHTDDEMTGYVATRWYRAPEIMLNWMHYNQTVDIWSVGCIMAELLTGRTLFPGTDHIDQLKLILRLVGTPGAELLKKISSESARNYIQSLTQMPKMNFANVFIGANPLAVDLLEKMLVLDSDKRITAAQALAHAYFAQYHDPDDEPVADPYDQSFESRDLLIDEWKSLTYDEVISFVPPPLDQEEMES
Serine/threonine-protein kinase PLK1 (Homo sapiens), sequence (P53350 whole entry): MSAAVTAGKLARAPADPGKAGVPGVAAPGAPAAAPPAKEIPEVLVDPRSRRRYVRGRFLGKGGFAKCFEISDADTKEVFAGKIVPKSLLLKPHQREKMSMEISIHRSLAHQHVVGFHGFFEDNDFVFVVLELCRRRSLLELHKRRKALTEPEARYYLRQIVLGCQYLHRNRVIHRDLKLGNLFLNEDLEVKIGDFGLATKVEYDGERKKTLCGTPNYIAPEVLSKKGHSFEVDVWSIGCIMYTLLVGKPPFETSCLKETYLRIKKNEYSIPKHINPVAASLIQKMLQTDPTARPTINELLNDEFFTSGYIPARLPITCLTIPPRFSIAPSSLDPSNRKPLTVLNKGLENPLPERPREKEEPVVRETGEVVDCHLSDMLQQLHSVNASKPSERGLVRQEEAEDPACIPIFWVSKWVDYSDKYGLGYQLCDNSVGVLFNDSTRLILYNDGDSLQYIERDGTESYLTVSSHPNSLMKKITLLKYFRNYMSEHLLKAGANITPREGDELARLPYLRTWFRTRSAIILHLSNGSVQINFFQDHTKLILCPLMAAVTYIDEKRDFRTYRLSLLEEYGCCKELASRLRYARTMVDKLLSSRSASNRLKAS
RAC-alpha serine/threonine-protein kinase (Homo sapiens), sequence (P31749 whole entry): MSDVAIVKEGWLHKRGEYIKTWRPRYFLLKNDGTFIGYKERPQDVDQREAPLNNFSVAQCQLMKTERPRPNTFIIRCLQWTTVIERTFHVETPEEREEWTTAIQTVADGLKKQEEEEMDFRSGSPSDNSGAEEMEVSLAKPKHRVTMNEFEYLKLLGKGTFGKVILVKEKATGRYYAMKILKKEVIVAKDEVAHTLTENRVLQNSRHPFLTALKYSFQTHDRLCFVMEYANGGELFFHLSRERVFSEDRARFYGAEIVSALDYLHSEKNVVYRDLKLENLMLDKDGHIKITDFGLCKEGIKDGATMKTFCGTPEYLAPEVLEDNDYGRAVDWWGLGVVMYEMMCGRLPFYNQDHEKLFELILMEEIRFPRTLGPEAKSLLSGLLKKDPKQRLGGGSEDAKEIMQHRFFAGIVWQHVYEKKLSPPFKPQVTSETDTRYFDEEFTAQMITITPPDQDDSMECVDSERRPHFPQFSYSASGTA
Aurora kinase B (Homo sapiens), sequence (Q96GD4 whole entry): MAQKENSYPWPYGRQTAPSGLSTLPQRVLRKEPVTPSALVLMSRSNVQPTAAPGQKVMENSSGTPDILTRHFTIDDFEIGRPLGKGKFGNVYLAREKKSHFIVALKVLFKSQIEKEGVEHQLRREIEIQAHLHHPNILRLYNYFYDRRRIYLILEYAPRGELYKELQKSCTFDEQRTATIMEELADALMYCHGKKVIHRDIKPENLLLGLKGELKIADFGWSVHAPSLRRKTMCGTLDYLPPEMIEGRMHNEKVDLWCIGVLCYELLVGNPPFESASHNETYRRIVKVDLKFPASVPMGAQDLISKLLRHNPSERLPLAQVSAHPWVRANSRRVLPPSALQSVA
Proto-oncogene tyrosine-protein kinase Src (Homo sapiens), sequence (P12931 2-536 limits assumed): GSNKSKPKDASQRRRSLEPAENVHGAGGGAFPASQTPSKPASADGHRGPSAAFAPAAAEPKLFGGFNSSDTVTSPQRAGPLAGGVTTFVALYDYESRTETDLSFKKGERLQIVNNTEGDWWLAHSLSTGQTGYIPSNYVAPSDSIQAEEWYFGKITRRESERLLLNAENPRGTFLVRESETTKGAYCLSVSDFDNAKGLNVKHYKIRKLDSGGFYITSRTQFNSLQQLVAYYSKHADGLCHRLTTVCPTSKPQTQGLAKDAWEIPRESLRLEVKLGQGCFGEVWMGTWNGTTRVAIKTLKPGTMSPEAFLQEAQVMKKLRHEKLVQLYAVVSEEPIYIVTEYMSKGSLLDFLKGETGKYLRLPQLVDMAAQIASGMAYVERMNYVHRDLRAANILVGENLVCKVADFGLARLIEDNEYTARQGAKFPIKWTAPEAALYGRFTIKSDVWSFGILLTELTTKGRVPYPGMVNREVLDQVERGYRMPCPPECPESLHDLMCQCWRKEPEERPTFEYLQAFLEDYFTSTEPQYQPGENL
Casein kinase II subunit alpha (Homo sapiens), sequence (P68400 whole entry, looked up): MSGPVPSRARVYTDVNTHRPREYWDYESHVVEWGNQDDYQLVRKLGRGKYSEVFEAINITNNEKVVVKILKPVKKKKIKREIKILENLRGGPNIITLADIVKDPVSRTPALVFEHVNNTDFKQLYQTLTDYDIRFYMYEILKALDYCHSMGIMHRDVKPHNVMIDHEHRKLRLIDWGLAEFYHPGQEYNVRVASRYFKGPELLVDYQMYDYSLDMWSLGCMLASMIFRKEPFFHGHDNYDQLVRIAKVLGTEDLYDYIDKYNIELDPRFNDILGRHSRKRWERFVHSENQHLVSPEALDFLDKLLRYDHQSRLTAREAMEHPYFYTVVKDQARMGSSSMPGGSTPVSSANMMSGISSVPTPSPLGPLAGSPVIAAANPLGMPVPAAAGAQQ

Regarding `Nc1ccccc1Nc1ccc2c(c1)CCc1ccc(OC[C@H](O)CO)cc1C2=O`, the IC50 (in general, the concentration that gives 50% inhibition) in test [1] came to 20 nM; in test [2], 80 nM. The inhibition result in test [3], in [4], in test [5], in [6], in [7] and in [8] was “inactive” in each case. Moreover, the inhibition result in test [9], in [10], in [11], in [12], in test [13] and in [14] was “inactive” in each case. For the same compound, the inhibition result in [15], in test [16], in [17] and in [18] was “inactive” throughout.
For the compound `COc1ccc2c(c1)C(=O)c1ccc(Nc3ccc(F)c(C)c3)cc1CC2`, the IC50 was 40 nM in test [1] and 1900 nM in [2]. Moreover, the inhibition result in test [3], in [4], in [5], in test [6], in test [7] and in [8] was “inactive” each time. Besides, the inhibition entry in test [9], in test [10], in [11], in test [12], in test [13] and in [14] was “inactive” throughout. Further, the inhibition entry in test [15], in test [16], in test [17] and in test [18] was “inactive” each time.
Regarding `Nc1ccccc1Nc1ccc2c(c1)CCc1c(OC[C@H](O)CO)cccc1C2=O`, the figures for the half-inhibitory concentration (IC50) in test [1] and in test [2] were 40 nM and 78800 nM, respectively. For the same compound, the inhibition entry in test [3], in [4], in [5], in test [6], in test [7] and in [8] was “inactive” in each case. The inhibition entry in test [9], in [10], in test [11], in [12], in test [13] and in test [14] was “inactive” each time. Further, the inhibition entry in test [15], in [16], in test [17] and in test [18] was “inactive” each time.
Consider `O=C1c2ccc(Nc3ccc(F)cc3F)cc2CCc2c(O)cccc21`, for which the concentration for half-maximal inhibition (IC50) in test [1] is 20 nM; in test [2], 37300 nM. Besides, the inhibition result in [3], in test [4], in test [5], in [6], in test [7] and in test [8] was “inactive” each time. Moreover, the inhibition entry in test [9], in [10], in test [11], in test [12], in test [13] and in [14] was “inactive” each time. Also, the inhibition entry in test [15], in test [16], in test [17] and in test [18] was “inactive” throughout.
